Converted amounts (≈) assume the structure as drawn. “And” between values parts separate entries of the source, which are not always exact repeats. Equal entries are not always repeated. Starred links: 1 amine or outer side, 2 acyl side, 3 side chain; linkers in the order of their positions; H or OH if unused. Positions of bridges follow the written chain, without caps; N, C: chain ends. Non-standard residues stand in square brackets, D forms with d. Residues, ends and D or L forms follow the SMILES beside them. ξ: configuration not given here. *: point of attachment. ξAsp(3ξ-OMe) = COC(C(=O)O)C(N)C(=O)O; X1 = CC(CC(=O)O)C(N[*:1])C(=O)[*:2]; ξAsn(3ξ-OH) = NC(=O)C(O)C(N)C(=O)O; Decanoyl = CCCCCCCCCC(=O)*; X2 = CC(C)CCCCCCC(=O)*; Sar = CNCC(=O)O

Assay [1] concerns Streptococcus pyogenes C203. As to the kind of experiment: MIC, conventional agar-dilution assay. The class given is cell-based. How it is done: (§1) The A54145 antibiotics inhibit the growth of pathogenic bacteria. […] The MIC's in Table IX were determined by conventional agar-dilution assays.
The subject of assay [2] is Streptococcus pneumoniae Park1. The assay is described as follows: MIC, conventional agar-dilution assay. It is filed as cell-based. The method, then: as §1
For assay [3], the system named is Staphylococcus aureus X400. As to the kind of experiment: MIC, conventional agar-dilution assay. The class given is cell-based. How it is done: as §1
In assay [4] the test system is Staphylococcus aureus X1.1. The assay is described as follows: MIC, conventional agar-dilution assay. The class given is cell-based. The method, then: as §1
Assay [5] relates to Staphylococcus aureus V41. As to the kind of experiment: MIC, conventional agar-dilution assay. The class given is cell-based. How it is done: as §1
The test system of assay [6] is Streptococcus sp. group D X66. The assay is described as follows: MIC, conventional agar-dilution assay. It is filed as cell-based. How it is done: as §1
For assay [7], the system named is Streptococcus sp. group 2041. As to the kind of experiment: MIC, conventional agar-dilution assay. The class given is cell-based. How it is done: as §1
The subject of assay [8] is Staphylococcus epidermidis 222. As to the kind of experiment: MIC, conventional agar-dilution assay. The class given is cell-based. How it is done:
as §1

Assay [9] concerns Staphylococcus aureus S13E. The assay is described as follows: MIC, conventional agar-dilution assay. The class given is cell-based. How it is done: as §1
Assay [10] has as its system Staphylococcus epidermidis EPI1. The assay is described as follows: MIC, conventional agar-dilution assay. It is filed as cell-based. The method, then:
as §1

Assay [11] in a line: Chick growth performance test (weight gain, feed efficiency). It is filed as in vivo, chicks. To be noted: for Weight Gain Amt.: chicks 7-14 days of age; for Feed/Gain % Impr. / Weight Gain % Impr.: relative to the control mean. From the text: In the tests, the compounds were given to chicks at the concentrations indicated in the feed. The test period was the 7-day period from 7-14 days of age of the birds. Growth performance (weight gain, feed consumption and feed efficiency) was compared to that of contemporary controls.

The test system of assay [12] is Streptococcus pyogenes. As to the kind of experiment: ED50 in experimentally infected mice. To be noted: mice infected with Streptococcus pyogenes, subcutaneous; for ED50 Value: doses given 1 and 4 hours postinfection. It is filed as in vivo. How it is done:
(§2) The A54145 antibiotics have shown in vivo antimicrobial activity against experimentally-induced infections in laboratory animals. When two doses of test compound were administered to mice experimentally infected with Streptococcus pyogenes or Staphylococcus aureus, the activity observed was measured as an ED50 value [effective dose in mg/kg to protect 50% of the test animals: see Warren Wick, et al. J. Bacteriol. 81 233-235 (1961)].

The nature of assay [13]: Growth performance of starter pigs. The class given is in vivo. The text has this: In this test, a total of 145 barrows and gilts, averaging 22 pounds starting weight, were used to determine the effect of various dosages of A54145 on the growth performance of starter pigs. The pigs were fed an 18% crude protein corn-soy diet and were housed in a completely enclosed building with wire mesh floors elevated over a flush floor. The effect of the treatments on performance was studied for a 28-day trial period.

Assay [14] concerns Staphylococcus aureus. As to the kind of experiment: ED50 in experimentally infected mice. It is filed as in vivo. To be noted: mice infected with Staphylococcus aureus; subcutaneous; doses given 1 and 4 hours postinfection. How it is done: as §2
The test system of assay [15] is Streptococcus faecalis ATCC 29212. The assay is described as follows: Stimulation of in vitro activity by calcium ions. It is filed as cell-based. Further details: dose or concentration left out as unconfirmed. How it is done:
(§3) The in vitro activity of the A54145 antibiotics is stimulated by the presence of calcium ions. For example, the in vitro activity of A54145A against Staphylococcus aureus 209P and Streptococcus faecalis ATCC 29212 was stimulated about 100 times by the presence of Ca^++ ([…]).

For assay [16], the system named is Staphylococcus aureus 209P. The assay is described as follows: Stimulation of in vitro activity by calcium ions. The class given is cell-based. Further details: dose or concentration left out as unconfirmed. How it is done: as §3

Turning to `CCCCCCCCCC(=O)NC(Cc1c[nH]c2ccccc12)C(=O)NC(CCC(=O)O)C(=O)NC(C(=O)NC1C(=O)N(C)CC(=O)NC(C)C(=O)NC(CC(=O)O)C(=O)NC(CCCCN)C(=O)NC(C(OC)C(=O)O)C(=O)NCC(=O)NC(CC(N)=O)C(=O)NC(C(C)CC(=O)O)C(=O)NC(C(C)CC)C(=O)OC1C)C(O)C(N)=O` (centres unmarked) [Component A54145B] (Decanoyl-WE[ξAsn(3ξ-OH)]T[Sar]ADK[ξAsp(3ξ-OMe)]GN[X1]I; ester 4-C; configuration not given here), the MIC in [1] came out at 0.5 µg/mL (≈ 0.301 µM); in assay [2], 2 µg/mL (≈ 1.21 µM); in assay [3], 2 µg/mL (≈ 1.21 µM); in [4] it was 2 µg/mL (≈ 1.21 µM); in [5], 2 µg/mL (≈ 1.21 µM); in assay [6] it was 4 µg/mL (≈ 2.41 µM). Further, the MIC amounted to 8 µg/mL (≈ 4.82 µM) in assay [7], 2 µg/mL (≈ 1.21 µM) in assay [8], 2 µg/mL (≈ 1.21 µM) in assay [9] and 2 µg/mL (≈ 1.21 µM) in assay [10]. In addition, the “Feed/Gain Ratio” value in assay [11] (Table XIII, 5 g/ton) came out at 1.887; in assay [11] (Table XIII, 10 g/ton) it was 1.730; in assay [11] (Table XIII, 20 g/ton), 1.785. Moreover, the “Weight Gain Amt.” value in assay [11] (Table XIII, 5 g/ton in feed) is on record as 341 g; in [11] (Table XIII, 10 g/ton in feed), 392 g; in assay [11] (Table XIII, 20 g/ton in feed), 402 g. The “Feed/Gain % Impr.” value in assay [11] (Table XIII, 5 g/ton) turned out to be 6.3%; in [11] (Table XIII, 10 g/ton) it was 14.1%; in [11] (Table XIII, 20 g/ton), 11.3%. The “Weight Gain % Impr.” value in assay [11] (Table XIII, 5 g/ton) worked out at 8.3%; in assay [11] (Table XIII, 10 g/ton) it was 24.4%; in assay [11] (Table XIII, 20 g/ton) it was 27.6%. Further, the “weight gains in chickens (in words)” value in assay [11] is listed as “increased weight gains”. In addition, in assay [12], the “ED50 Value” worked out at 0.94 mg/kg × 2.

For the compound `CCCCCCCCCC(=O)NC(Cc1c[nH]c2ccccc12)C(=O)NC(CCC(=O)O)C(=O)NC(C(=O)NC1C(=O)N(C)CC(=O)NC(C)C(=O)NC(CC(=O)O)C(=O)NC(CCCCN)C(=O)NC(C(OC)C(=O)O)C(=O)NCC(=O)NC(CC(N)=O)C(=O)NC(CCC(=O)O)C(=O)NC(C(C)CC)C(=O)OC1C)C(O)C(N)=O` (centres unmarked) [Component A54145A1] (Decanoyl-WE[ξAsn(3ξ-OH)]T[Sar]ADK[ξAsp(3ξ-OMe)]GNEI; ester 4-C; configuration not given here), the MIC in [1] was found to be 1 µg/mL (≈ 0.608 µM); in [2], 4 µg/mL (≈ 2.43 µM); in [3], 8 µg/mL (≈ 4.86 µM); in [4], 4 µg/mL (≈ 2.43 µM); in [5], 4 µg/mL (≈ 2.43 µM); in assay [6] it was 16 µg/mL (≈ 9.73 µM). Besides, the MIC in assay [7] turned out to be 32 µg/mL (≈ 19.5 µM); in assay [8] it was 4 µg/mL (≈ 2.43 µM); in [9] it was 8 µg/mL (≈ 4.86 µM); in assay [10], 4 µg/mL (≈ 2.43 µM). Besides, the “ED50 Value” in [12] came out at 5.0 mg/kg × 2.

Take `CCC(C)C1NC(=O)C(CCC(=O)O)NC(=O)C(CC(N)=O)NC(=O)CNC(=O)C(C(OC)C(=O)O)NC(=O)C(CCCCN)NC(=O)C(CC(=O)O)NC(=O)C(C)NC(=O)CN(C)C(=O)C(NC(=O)C(NC(=O)C(CCC(=O)O)NC(=O)C(Cc2c[nH]c3ccccc23)NC(=O)CCCCCCC(C)C)C(O)C(N)=O)C(C)OC1=O` (centres unmarked) [Component A54145A] (X2-WE[ξAsn(3ξ-OH)]T[Sar]ADK[ξAsp(3ξ-OMe)]GNEI; ester 4-C; configuration not given here): the MIC in assay [1] was 2 µg/mL (≈ 1.22 µM); in [2], 8 µg/mL (≈ 4.86 µM); in [3], 8 µg/mL (≈ 4.86 µM); in assay [4], 8 µg/mL (≈ 4.86 µM); in [5] it was 8 µg/mL (≈ 4.86 µM); in assay [6] it was 16 µg/mL (≈ 9.73 µM). In addition, the MIC in assay [7] is 64 µg/mL (≈ 38.9 µM); in assay [8] it was 4 µg/mL (≈ 2.43 µM); in assay [9] it was 8 µg/mL (≈ 4.86 µM); in [10] it was 4 µg/mL (≈ 2.43 µM). Further, the “feed/gain ratio in pigs (in words)” value in [13] was “improved the feed/gain ratio”. Further, in [11] (Table XII, 20 g/ton), the “Feed/Gain Ratio” value came out at 1.546. Moreover, the “Weight Gain Amt.” value in [11] (Table XII, 20 g/ton in feed) stood at 168 g. Besides, the “Feed/Gain % Impr.” value in [11] (Table XII, 20 g/ton) is listed as 11.0%. The “Weight Gain % Impr.” value in [11] (Table XII, 20 g/ton) was 26.3%. Moreover, in [11], the “weight gains in chickens (in words)” value was “increased weight gains”. Further, the entries for the “ED50 Value” in [12] and in assay [14] were 2.4 mg/kg × 2 and 3.3 mg/kg × 2, respectively. Besides, the “ED50 Value, individual values of two tests” value in [12] (individual tests behind the average) is 1.6 mg/kg × 2 and 3.1 mg/kg × 2. The “stimulation of in vitro activity by Ca++” value in assay [15] and in assay [16] was “about 100 times” each time.

(Values after US4994270A, “A54145 antibiotics and process for their production” (Eli Lilly and Company, priority 1988, dated 1991).)
